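Dose response: 5 concentrations. Exposure: 48 h. Format: 96-well plates. Endpoint: linear interpolation; highest concentration if not reached. The concentration for full growth arrest is given as TGI.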
What was measured:
Assay in all cases: DTP human tumour cell line panel, 48 h
786-0 renal = test system: 786-0 renal
A549 NSCLC = test system: A549 NSCLC
ACHN renal = test system: ACHN renal
CAKI-1 renal = test system: CAKI-1 renal
CCRF-CEM leukemia = test system: CCRF-CEM leukemia
DLD-1 colon = test system: DLD-1 colon
DMS 273 small cell lung = test system: DMS 273 small cell lung
EKVX NSCLC = test system: EKVX NSCLC
HCT-116 colon = test system: HCT-116 colon
HCT-15 colon = test system: HCT-15 colon
HL-60(TB) leukemia = test system: HL-60(TB) leukemia
HOP-92 NSCLC = test system: HOP-92 NSCLC
HT29 colon = test system: HT29 colon
IGROV1 ovarian = test system: IGROV1 ovarian
K-562 leukemia = test system: K-562 leukemia
KM12 colon = test system: KM12 colon
KM20L2 colon = test system: KM20L2 colon
LOX IMVI melanoma = test system: LOX IMVI melanoma
LXFL 529 NSCLC = test system: LXFL 529 NSCLC
M14 melanoma = test system: M14 melanoma
M19-MEL melanoma = test system: M19-MEL melanoma
MALME-3M melanoma = test system: MALME-3M melanoma
MOLT-4 leukemia = test system: MOLT-4 leukemia
NCI-H226 lung = test system: NCI-H226 lung
NCI-H23 lung = test system: NCI-H23 lung
NCI-H522 lung = test system: NCI-H522 lung
OVCAR-3 ovarian = test system: OVCAR-3 ovarian
RPMI-8226 leukemia = test system: RPMI-8226 leukemia
SF-268 CNS = test system: SF-268 CNS
SF-295 CNS = test system: SF-295 CNS
SF-539 CNS = test system: SF-539 CNS
SK-MEL-2 melanoma = test system: SK-MEL-2 melanoma
SK-MEL-28 melanoma = test system: SK-MEL-28 melanoma
SK-OV-3 ovarian = test system: SK-OV-3 ovarian
SN12C renal = test system: SN12C renal
SNB-19 CNS = test system: SNB-19 CNS
SNB-75 CNS = test system: SNB-75 CNS
SNB-78 CNS = test system: SNB-78 CNS
SR leukemia = test system: SR leukemia
SW-620 colon = test system: SW-620 colon
TK-10 renal = test system: TK-10 renal
U251 CNS = test system: U251 CNS
UACC-257 melanoma = test system: UACC-257 melanoma
UACC-62 melanoma = test system: UACC-62 melanoma
UO-31 renal = test system: UO-31 renal
XF 498 CNS = test system: XF 498 CNS
COLO 205 colon = test system: COLO 205 colon
HCC-2998 colon = test system: HCC-2998 colon
HOP-18 NSCLC = test system: HOP-18 NSCLC
HOP-62 NSCLC = test system: HOP-62 NSCLC
NCI-H460 lung = test system: NCI-H460 lung
OVCAR-4 ovarian = test system: OVCAR-4 ovarian
OVCAR-5 ovarian = test system: OVCAR-5 ovarian
OVCAR-8 ovarian = test system: OVCAR-8 ovarian
RXF 393 renal = test system: RXF 393 renal
SK-MEL-5 melanoma = test system: SK-MEL-5 melanoma

Measured: TGI

COCCNC(=O)C1C(=O)N(CCOC)C(=O)/C1=N/N (stereo not given)
not listed: COLO 205 colon | HCC-2998 colon | HOP-18 NSCLC | HOP-62 NSCLC | NCI-H460 lung | OVCAR-4 ovarian | OVCAR-5 ovarian | OVCAR-8 ovarian | RXF 393 renal | SK-MEL-5 melanoma
> 100 µM: all other assays above

COC1OC(OC)C2C(c3c(C)cc(C)cc3C)=NOC12 (stereo not given)
not listed: SF-539 CNS | SN12C renal
> 100 µM: all other assays above

From PubChem BioAssay (NCI)
